Legend:
piglets = assay: GILAX as feed additive for pig health after weaning; assay type: in vivo; conditions: in-feed amoxicillin at 50 mg/kg/day for 21 days (positive control)
V. cholerae 6239 = assay: Antimicrobial activity, Minimum Inhibitory Concentration; assay type: cell-based, Vibrio cholerae; conditions: for Minimum Inhibitory Concentration: V. cholerae 6239
L. plantarum = assay: as above; assay type: cell-based, Lactobacillus plantarum; conditions: for Minimum Inhibitory Concentration: L. plantarum
Strep. Group B MCR1 27 = assay: as above; assay type: cell-based, Streptococcus Group B; conditions: for Minimum Inhibitory Concentration: Strep. Group B MCR1 27
Staph. Aureus ATCC 29213 = assay: as above; assay type: cell-based, Staphylococcus aureus
E. coli HS = assay: as above; assay type: cell-based, Escherichia Coli
C. albicans ATCC 14053 = assay: as above; assay type: cell-based, Candida albicans; conditions: for Minimum Inhibitory Concentration: C. albicans ATCC 14053
Lactobacilli = assay: Effect on probiotic bacteria below the MIC; assay type: cell-based; conditions: berberine at 5 µg/ml
Excerpt: (§1) This specific property of berberine offers an important aspect as a GI tract cleanser, since it can selectively remove pathogenic bacteria from the gut without affecting the inhabitations of the probiotic bacteria in GI tract, and without exerting excessive drug pressure on the bacteria, which may lead to drug resistance.

[1] = system: Cl. perfringens ATCC 1124; assay type: cell-based; conditions: Clostridium perfringens
interleukine-12 (IL-12) = assay: Induction of interleukine-12
Escherichia Coli = assay: Loss of filaments and of attachment to intestinal wall below the MIC; assay type: cell-based; conditions: berberine at 5 µg/ml, much lower than MIC
Excerpt: as §1

chickens = assay: Pilot chicken experiment (feed additives, growth and red combs)
[2] = across the intestinal tissue; reference [13]; cited from earlier work
[3] = system: hFUT1 mouse model of colitis; assay: Treatment of IBD on mouse model; assay type: in vivo; conditions: Group 2: berberine chloride 13.5 mg/kg/day (o.s.)
Excerpt: hFUT1 mouse model of colitis was used. It provides insights into the pathogenesis of Inflammatory Bowel Disease (IBD). […] Immune dysfunction contributing to IBD in humans includes abnormal T cell reactivity and a loss of tolerance to gut bacteria. The compositions of Formula (1) and Formula (2) were given orally to mice to see the effectiveness on the altering the gut flora and lessening the severity of the colitis. The positive results indicated the compositions of Formula and Formula (2) may have a therapeutic role in human IBD.
A total five groups with ten mice per group were used as follows. • 1) Control (without treatment). • 2) Treated with compound of the Formula (1) (berberine chloride), 13.5 mg/kg/day (o.s.). • 3) Treated with compound of the Formula (2) (40% oxidized cellulose), 114 mg/kg/day (o.s.). • 4) Treated with composition of the Formula (1) (berberine chloride) (6.7 mg/kg/day) and the Formula (2) (40% oxidized cellulose) (57 mg/kg/day) (o.s.). • 5) Treated with composition of the Formula (1) (berberine chloride) (13.5 mg/kg/day) and the Formula (2) (114 mg/kg/day) (o.s.).

IL-8 = assay: Inhibition of IL-8 production

Q: With `CC1(C)S[C@@H]2[C@H](NC(=O)[C@H](N)c3ccc(O)cc3)C(=O)N2[C@H]1C(=O)O` [Amoxicillin, amoxicillin] as the compound, how does the “health of piglets after weaning” value (piglets) read?
A: all healthy

Q: What about the “need of injectable amoxicillin for sick piglets” value (piglets) of the same compound?
A: no injectable amoxicillin was needed

Q: Which “Minimum Inhibitory Concentration” value (V. cholerae 6239) does the source give for `CC[C@H]1OC(=O)[C@H](C)[C@@H](O[C@H]2C[C@@](C)(OC)[C@@H](O)[C@H](C)O2)[C@H](C)[C@@H](O[C@@H]2O[C@H](C)C[C@H](N(C)C)[C@H]2O)[C@](C)(O)C[C@@H](C)C(=O)[C@H](C)[C@@H](O)[C@]1(C)O` [Erythromycin, reference compound] here?
A: >10 µg/mL

Q: And the “Minimum Inhibitory Concentration” value (L. plantarum)?
A: <0.625 µg/mL

Q: What about the “Minimum Inhibitory Concentration” value (Strep. Group B MCR1 27) of the same compound?
A: <0.625 µg/mL

Q: What about the “Minimum Inhibitory Concentration” value (Staph. Aureus ATCC 29213; Staph. Aureus ATCC 29213) of the same compound?
A: <0.625 µg/mL

Q: What about the “Minimum Inhibitory Concentration” value (E. coli HS) of the same compound?
A: >10 µg/mL

Q: And the “Minimum Inhibitory Concentration” value (C. albicans ATCC 14053)?
A: >10 µg/mL

Q: Which “effect on probiotic bacteria” value (Lactobacilli) does the source give for `COc1ccc2cc3[n+](cc2c1OC)CCc1cc2c(cc1-3)OCO2.[Cl-]` [berberine chloride] here?
A: did not affect

Q: And the “Minimum Inhibitory Concentration” value (V. cholerae 6239)?
A: 125 µg/mL

Q: What about the “inhibition of pathogenic bacteria (in words)” value (V. cholerae 6239; Vibrio cholerae) of the same compound?
A: selectively inhibits

Q: And the “inhibition of pathogenic bacteria (in words)” value [1]?
A: selectively inhibits

Q: What about the “Minimum Inhibitory Concentration” value (L. plantarum) of the same compound?
A: 500 µg/mL

Q: And the “inhibition of beneficial bacteria (probiotics) (in words)” value (L. plantarum; Lactobacillus plantarum, at <500 µg/ml)?
A: does not inhibit

Q: What about the “Minimum Inhibitory Concentration” value (Strep. Group B MCR1 27) of the same compound?
A: 62.5 µg/mL

Q: What about the “inhibition of pathogenic bacteria (in words)” value (Strep. Group B MCR1 27; Streptococcus Group B) of the same compound?
A: selectively inhibits

Q: What about the “induction of interleukine-12 (IL-12)” value (interleukine-12 (IL-12)) of the same compound?
A: could induce

Q: And the “effect on filaments and attachment on the wall of intestine” value (Escherichia Coli)?
A: lost their filaments and were unable to attach on the wall of intestine

Q: And the “inhibition of pathogenic bacteria (in words)” value (Staph. Aureus ATCC 29213; Staphylococcus aureus)?
A: selectively inhibits

Q: And the “Growth rate compared to that of the control on day 36” value (chickens; Group A: 50 ppm berberine chloride in feed)?
A: 106.36% (p = 0.05)

Q: What about the “Red Combs (Number of red comb/total number of chickens)” value (chickens; Group A: 50 ppm berberine chloride in feed, Day 14 (start of additive)) of the same compound?
A: 0/5

Q: What about the “Red Combs (Number of red comb/total number of chickens)” value (chickens; Group A: 50 ppm berberine chloride in feed, Day 17) of the same compound?
A: 1/5

Q: And the “Red Combs (Number of red comb/total number of chickens)” value (chickens; Group A: 50 ppm berberine chloride in feed, Day 21)?
A: 1/5

Q: What about the “Red Combs (Number of red comb/total number of chickens)” value (chickens; Group A: 50 ppm berberine chloride in feed, Day 24) of the same compound?
A: 3/5

Q: What about the “Red Combs (Number of red comb/total number of chickens)” value (chickens; Group A: 50 ppm berberine chloride in feed, Day 26) of the same compound?
A: 3/5

Q: What about the “Red Combs (Number of red comb/total number of chickens)” value (chickens; Group A: 50 ppm berberine chloride in feed, Day 32) of the same compound?
A: 4/5

Q: What about the “Red Combs (Number of red comb/total number of chickens)” value (chickens; Group A: 50 ppm berberine chloride in feed, Day 36) of the same compound?
A: 4/5

Q: And the “Growth rate compared to that of the control on day 36” value (chickens; Group B: 10 ppm berberine chloride in feed)?
A: 101.79%

Q: And the “Red Combs (Number of red comb/total number of chickens)” value (chickens; Group B: 10 ppm berberine chloride in feed, Day 14 (start of additive))?
A: 0/5

Q: What about the “Red Combs (Number of red comb/total number of chickens)” value (chickens; Group B: 10 ppm berberine chloride in feed, Day 17) of the same compound?
A: 0/5

Q: And the “Red Combs (Number of red comb/total number of chickens)” value (chickens; Group B: 10 ppm berberine chloride in feed, Day 21)?
A: 2/5

Q: What about the “Red Combs (Number of red comb/total number of chickens)” value (chickens; Group B: 10 ppm berberine chloride in feed, Day 24) of the same compound?
A: 2/5

Q: What about the “Red Combs (Number of red comb/total number of chickens)” value (chickens; Group B: 10 ppm berberine chloride in feed, Day 26) of the same compound?
A: 3/5

Q: What about the “Red Combs (Number of red comb/total number of chickens)” value (chickens; Group B: 10 ppm berberine chloride in feed, Day 32) of the same compound?
A: 4/5

Q: What about the “Red Combs (Number of red comb/total number of chickens)” value (chickens; Group B: 10 ppm berberine chloride in feed, Day 36) of the same compound?
A: 5/5

Q: And the “residue found in the meat of chickens” value (chickens; after feeding as feed additive)?
A: no residue

Q: And the “apparent permeability coefficient (Papp)” value [2]?
A: ~10^−7 cm/s

Q: And the “Minimum Inhibitory Concentration” value (E. coli HS)?
A: >500 µg/mL

Q: What about the “Survival rate after 56 days treatment” value [3] of the same compound?
A: 5/10

Q: And the “inhibition of the production of IL-8” value (IL-8)?
A: inhibit the production of IL-8

Q: And the “Minimum Inhibitory Concentration” value (C. albicans ATCC 14053)?
A: 62.5 µg/mL

Q: What about the “inhibition of pathogenic bacteria (in words)” value (C. albicans ATCC 14053; Candida albicans) of the same compound?
A: selectively inhibits

Source: patent US8927565B2, “Compositions for veterinary and medical applications” (priority 2003, dated 2015)
